≈ marks a conversion by molar mass, not a printed value. Calls of active or inactive are those of the source. The rule behind the calls is not given here.

The values that follow come from ChEMBL document CHEMBL1142585, “Two new cytotoxic linderazulenes from a deep-sea gorgonian of the genus Paramuricea” (J Nat Prod, 2005).

One assay relates to P388. The assay can be described thus: Cytotoxicity against mouse P388 cells by MTT assay. Type of assay: functional, cell-based. (In general: Tetrazolium assays rely on reduction of a dye to a coloured formazan, in cell work by metabolically active cells.)
A further assay deals with Candida albicans. As to the kind of experiment: Antifungal activity against Candida albicans at 50 ug/mL. Type of assay: functional, organism-based.
For another assay, the system named is PANC-1. As to the kind of experiment: Cytotoxicity against human PANC-1 cells by MTT assay. Type of assay: functional, cell-based.

Molecule `Cc1cc2occ(C)c2cc2c(C=O)ccc1-2` returned an IC50 with P388 of 15.6 µg/mL (≈ 69.6 µM). The result in the assay with Candida albicans was inactive.

In the case of `Cc1cc2occ(C)c2cc2c(C)ccc1-2` [LINDERAZULENE], the IC50 with P388 is 18.8 µg/mL (≈ 89.4 µM). The result with Candida albicans was inactive.

Consider `COC(=O)c1ccc2c(C)cc3occ(C)c3cc1-2`, for which the results for the IC50 in the assay with PANC-1 and in the assay on P388 were 18.7 µg/mL (≈ 73.5 µM) and 2.7 µg/mL (≈ 10.6 µM), respectively. Also, the outcome with Candida albicans was inactive.

Usually IC50 stands for the point on the concentration scale where inhibition reaches its midpoint. Low values mean greater potency, high ones weaker potency.
